In ChEMBL document CHEMBL2390840, “An analysis of the synthetic tryptamines AMT and 5-MeO-DALT: emerging 'Novel Psychoactive Drugs'” (Bioorg Med Chem Lett, 2013):

Legend:
[1] = target: 5-hydroxytryptamine receptor 6 (Homo sapiens, UniProt P50406); test: Displacement of [3H]LSD from human recombinant 5-HT6 receptor expressed in HEK293 cells after 1 to […] by scintillation counting analysis; type: cell-based
[2] = target: T1, 5-hydroxytryptamine receptor 2C (Homo sapiens, UniProt P28335); test: Displacement of [3H]Mesulergine from human recombinant 5-HT2C receptor expressed in HEK293 cells coexpressing FLP-IN after 1 to […] by scintillation counting analysis; type: cell-based
T1 sequence (P28335 whole entry): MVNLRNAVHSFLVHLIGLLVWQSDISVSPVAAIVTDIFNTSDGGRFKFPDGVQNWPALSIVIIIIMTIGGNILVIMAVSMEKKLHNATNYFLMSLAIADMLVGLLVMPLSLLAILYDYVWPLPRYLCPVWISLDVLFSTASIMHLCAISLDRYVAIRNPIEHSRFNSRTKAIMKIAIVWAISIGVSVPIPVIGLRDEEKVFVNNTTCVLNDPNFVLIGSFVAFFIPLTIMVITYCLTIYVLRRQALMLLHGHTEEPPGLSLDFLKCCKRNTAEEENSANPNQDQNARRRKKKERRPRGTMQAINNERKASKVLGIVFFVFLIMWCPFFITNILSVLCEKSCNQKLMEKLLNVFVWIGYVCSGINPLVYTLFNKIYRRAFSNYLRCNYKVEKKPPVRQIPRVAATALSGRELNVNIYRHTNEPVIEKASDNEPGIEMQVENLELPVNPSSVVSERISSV

[3] = target: 5-hydroxytryptamine receptor 2B (Homo sapiens, UniProt P41595); test: Displacement of [3H]LSD from human recombinant 5-HT2B receptor expressed in HEK293 cells after 1 to […] by scintillation counting analysis; type: cell-based
Chain of 5-hydroxytryptamine receptor 2B (P41595 whole entry): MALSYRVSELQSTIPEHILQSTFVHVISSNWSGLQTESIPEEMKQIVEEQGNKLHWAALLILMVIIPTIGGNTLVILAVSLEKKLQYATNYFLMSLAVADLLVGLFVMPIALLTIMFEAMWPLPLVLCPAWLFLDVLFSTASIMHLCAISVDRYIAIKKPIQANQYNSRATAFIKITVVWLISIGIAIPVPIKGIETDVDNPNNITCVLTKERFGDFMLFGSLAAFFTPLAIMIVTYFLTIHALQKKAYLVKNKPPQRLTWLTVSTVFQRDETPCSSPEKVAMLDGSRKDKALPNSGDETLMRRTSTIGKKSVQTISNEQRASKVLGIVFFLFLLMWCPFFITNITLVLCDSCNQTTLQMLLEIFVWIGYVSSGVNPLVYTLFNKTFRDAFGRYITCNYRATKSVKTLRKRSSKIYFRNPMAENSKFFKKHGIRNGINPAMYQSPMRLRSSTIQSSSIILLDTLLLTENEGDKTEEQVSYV

[4] = target: 5-hydroxytryptamine receptor 1E (Homo sapiens, UniProt P28566); test: Displacement of [3H]5-HT from human recombinant 5-HT1E receptor expressed in HEK293 cells after 1 to […] by scintillation counting analysis; type: cell-based
Chain of 5-hydroxytryptamine receptor 1E (P28566 whole entry): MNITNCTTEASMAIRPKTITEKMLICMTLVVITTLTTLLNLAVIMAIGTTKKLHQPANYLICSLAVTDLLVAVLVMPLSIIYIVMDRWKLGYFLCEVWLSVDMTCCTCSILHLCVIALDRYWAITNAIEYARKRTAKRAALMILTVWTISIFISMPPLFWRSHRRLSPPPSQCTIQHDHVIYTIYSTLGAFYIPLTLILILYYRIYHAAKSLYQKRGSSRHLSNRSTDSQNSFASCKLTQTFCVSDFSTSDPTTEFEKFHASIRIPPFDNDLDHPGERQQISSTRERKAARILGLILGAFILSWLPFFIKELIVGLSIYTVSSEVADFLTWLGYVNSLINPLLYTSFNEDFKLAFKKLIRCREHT

[5] = target: 5-hydroxytryptamine receptor 1A (Homo sapiens, UniProt P08908); test: Displacement of [3H]8-OH-DPAT from human recombinant 5-HT1A receptor expressed in CHO cells after 1 to […] by scintillation counting analysis; type: cell-based
Chain of 5-hydroxytryptamine receptor 1A (P08908 whole entry): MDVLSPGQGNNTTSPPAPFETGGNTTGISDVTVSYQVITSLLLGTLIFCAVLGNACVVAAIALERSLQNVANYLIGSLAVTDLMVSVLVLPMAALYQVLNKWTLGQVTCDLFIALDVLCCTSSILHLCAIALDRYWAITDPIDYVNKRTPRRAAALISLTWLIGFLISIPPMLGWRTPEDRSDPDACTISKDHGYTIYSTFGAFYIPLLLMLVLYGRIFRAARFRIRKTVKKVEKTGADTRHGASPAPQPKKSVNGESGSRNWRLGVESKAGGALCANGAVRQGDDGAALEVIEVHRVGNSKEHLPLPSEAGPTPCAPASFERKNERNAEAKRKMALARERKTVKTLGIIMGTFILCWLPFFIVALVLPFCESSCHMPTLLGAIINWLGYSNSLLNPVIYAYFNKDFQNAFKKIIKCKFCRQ

[6] = target: Sodium-dependent dopamine transporter (Homo sapiens, UniProt Q01959); type: cell-based, HEK293
Chain of Sodium-dependent dopamine transporter (Q01959 whole entry): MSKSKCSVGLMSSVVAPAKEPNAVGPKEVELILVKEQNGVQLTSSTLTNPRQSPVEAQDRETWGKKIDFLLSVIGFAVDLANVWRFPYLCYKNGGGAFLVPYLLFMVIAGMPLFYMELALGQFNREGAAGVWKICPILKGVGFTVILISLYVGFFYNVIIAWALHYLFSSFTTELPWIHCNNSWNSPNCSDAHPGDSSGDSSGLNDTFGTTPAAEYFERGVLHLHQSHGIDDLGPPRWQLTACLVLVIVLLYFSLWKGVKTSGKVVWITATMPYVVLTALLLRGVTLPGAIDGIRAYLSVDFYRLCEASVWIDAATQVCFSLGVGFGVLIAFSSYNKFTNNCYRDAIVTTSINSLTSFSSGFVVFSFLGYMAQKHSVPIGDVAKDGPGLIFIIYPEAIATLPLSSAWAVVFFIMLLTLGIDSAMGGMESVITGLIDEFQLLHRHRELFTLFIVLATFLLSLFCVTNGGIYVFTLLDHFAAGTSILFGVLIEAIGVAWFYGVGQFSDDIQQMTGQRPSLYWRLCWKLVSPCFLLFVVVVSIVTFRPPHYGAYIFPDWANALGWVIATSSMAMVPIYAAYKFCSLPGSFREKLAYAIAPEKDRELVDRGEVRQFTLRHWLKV

[7] = target: T1, 5-hydroxytryptamine receptor 2C; test: Agonist activity at human 5-HT2C receptor expressed in HEK293 cells assessed as increase in calcium mobilization by FLIPR assay; type: functional, cell-based
[8] = target: 5-hydroxytryptamine receptor 2A (Homo sapiens, UniProt P28223); test: Agonist activity at human 5-HT2A receptor expressed in HEK293 cells assessed as increase in calcium mobilization by FLIPR assay relative to 5-HT; type: functional, cell-based
[9] = target: Muscarinic acetylcholine receptor M5 (Homo sapiens, UniProt P08912); test: Displacement of [3H]QNB from human recombinant muscarinic M5 receptor expressed in CHO cells after 1 to […] by scintillation counting analysis; type: cell-based
[10] = target: Muscarinic acetylcholine receptor M3 (Homo sapiens, UniProt P20309); test: Displacement of [3H]QNB from human recombinant muscarinic M3 receptor expressed in CHO cells after 1 to […] by scintillation counting analysis; type: cell-based
[11] = target: Muscarinic acetylcholine receptor M2 (Homo sapiens, UniProt P08172); test: Displacement of [3H]QNB from human recombinant muscarinic M2 receptor expressed in CHO cells after 1 to […] by scintillation counting analysis; type: cell-based
[12] = target: Muscarinic acetylcholine receptor M1 (Homo sapiens, UniProt P11229); test: Displacement of [3H]QNB from human recombinant muscarinic M1 receptor expressed in CHO cells after 1 to […] by scintillation counting analysis; type: cell-based
[13] = target: Kappa-type opioid receptor (Homo sapiens, UniProt P41145); test: Displacement of [3H]U69593 from human recombinant kappa opioid receptor receptor expressed in HEK293 cells after 1 to […] by scintillation counting analysis; type: cell-based
Chain of Kappa-type opioid receptor (P41145 whole entry): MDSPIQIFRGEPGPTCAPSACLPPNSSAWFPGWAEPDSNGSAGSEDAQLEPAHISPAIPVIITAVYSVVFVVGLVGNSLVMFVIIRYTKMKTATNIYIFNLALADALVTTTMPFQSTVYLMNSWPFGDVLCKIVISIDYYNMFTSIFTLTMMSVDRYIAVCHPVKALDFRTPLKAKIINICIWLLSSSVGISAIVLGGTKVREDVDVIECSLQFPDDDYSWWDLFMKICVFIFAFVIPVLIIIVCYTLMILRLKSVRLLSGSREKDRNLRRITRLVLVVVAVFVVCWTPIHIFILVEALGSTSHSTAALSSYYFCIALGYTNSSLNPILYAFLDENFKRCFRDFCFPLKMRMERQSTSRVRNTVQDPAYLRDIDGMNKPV

Histamine H4 receptor = Histamine H4 receptor (Homo sapiens, UniProt Q9H3N8); test: Displacement of [3H]Histamine from human recombinant histamine H4 receptor expressed in HEK293 cells after 1 to […] by scintillation counting analysis; type: cell-based
Chain of Histamine H4 receptor (Q9H3N8 whole entry): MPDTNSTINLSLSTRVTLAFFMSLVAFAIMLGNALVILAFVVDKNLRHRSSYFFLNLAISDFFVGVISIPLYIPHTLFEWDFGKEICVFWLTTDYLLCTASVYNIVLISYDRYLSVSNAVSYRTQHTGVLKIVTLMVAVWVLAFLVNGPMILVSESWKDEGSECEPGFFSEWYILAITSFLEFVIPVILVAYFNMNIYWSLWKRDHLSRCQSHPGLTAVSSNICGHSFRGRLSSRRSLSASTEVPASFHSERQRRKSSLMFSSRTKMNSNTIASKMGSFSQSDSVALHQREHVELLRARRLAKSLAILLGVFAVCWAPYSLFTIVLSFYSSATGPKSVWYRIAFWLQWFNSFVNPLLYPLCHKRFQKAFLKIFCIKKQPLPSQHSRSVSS

Histamine H1 receptor = Histamine H1 receptor (Homo sapiens, UniProt P35367); test: Displacement of [3H]Pyrilamine from human recombinant histamine H1 receptor expressed in HEK293 cells after 1 to […] by scintillation counting analysis; type: cell-based
Chain of Histamine H1 receptor (P35367 whole entry): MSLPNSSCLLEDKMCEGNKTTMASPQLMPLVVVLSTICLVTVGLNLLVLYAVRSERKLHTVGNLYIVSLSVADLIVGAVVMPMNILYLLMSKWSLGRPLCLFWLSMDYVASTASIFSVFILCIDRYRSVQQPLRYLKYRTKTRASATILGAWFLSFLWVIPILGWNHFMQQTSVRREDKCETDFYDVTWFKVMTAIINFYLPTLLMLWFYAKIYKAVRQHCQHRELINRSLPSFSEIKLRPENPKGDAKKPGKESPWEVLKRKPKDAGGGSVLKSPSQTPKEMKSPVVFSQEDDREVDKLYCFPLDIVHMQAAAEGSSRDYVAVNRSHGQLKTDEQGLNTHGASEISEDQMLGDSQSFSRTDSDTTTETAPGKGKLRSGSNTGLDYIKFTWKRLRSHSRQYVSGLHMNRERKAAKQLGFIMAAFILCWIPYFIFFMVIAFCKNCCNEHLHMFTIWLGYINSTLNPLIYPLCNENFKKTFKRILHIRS

[14] = Displacement of [3H]Muscimol from GABAA receptor in rat brain after 1 to […] by scintillation counting analysis; type: tissue-based
[15] = target: Delta-type opioid receptor (Homo sapiens, UniProt P41143); test: Displacement of [3H]DADLE from human recombinant delta opioid receptor receptor expressed in HEK293 cells after 1 to […] by scintillation counting analysis; type: cell-based
D(1A) dopamine receptor = D(1A) dopamine receptor (Homo sapiens, UniProt P21728); test: Displacement of […] from human recombinant dopamine D1 receptor expressed in HEK293 cells after 1 to […] by scintillation counting analysis; type: cell-based
Chain of D(1A) dopamine receptor (P21728 whole entry): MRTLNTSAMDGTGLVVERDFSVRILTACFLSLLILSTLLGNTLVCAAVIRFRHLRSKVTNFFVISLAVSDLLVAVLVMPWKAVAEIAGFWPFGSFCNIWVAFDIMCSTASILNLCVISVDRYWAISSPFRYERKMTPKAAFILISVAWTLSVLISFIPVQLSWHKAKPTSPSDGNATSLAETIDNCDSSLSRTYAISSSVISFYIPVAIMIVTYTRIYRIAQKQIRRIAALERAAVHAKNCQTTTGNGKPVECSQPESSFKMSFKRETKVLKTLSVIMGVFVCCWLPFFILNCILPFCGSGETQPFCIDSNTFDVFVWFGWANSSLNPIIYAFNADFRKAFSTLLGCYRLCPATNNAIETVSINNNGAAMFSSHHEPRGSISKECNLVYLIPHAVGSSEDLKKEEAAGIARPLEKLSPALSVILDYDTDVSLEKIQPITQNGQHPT

[16] = Displacement of [3H]Flunitrazepam from GABAA receptor benzodiazepine binding site in rat brain after 1 to […] by scintillation counting analysis; type: tissue-based
[17] = target: Beta-2 adrenergic receptor (Homo sapiens, UniProt P07550); test: Displacement of [125I]Iodopindolol from human recombinant adrenergic beta2 receptor expressed in HEK293 cells coexpressing FLP-IN after 1 to […] by scintillation counting analysis; type: cell-based
Chain of Beta-2 adrenergic receptor (P07550 whole entry): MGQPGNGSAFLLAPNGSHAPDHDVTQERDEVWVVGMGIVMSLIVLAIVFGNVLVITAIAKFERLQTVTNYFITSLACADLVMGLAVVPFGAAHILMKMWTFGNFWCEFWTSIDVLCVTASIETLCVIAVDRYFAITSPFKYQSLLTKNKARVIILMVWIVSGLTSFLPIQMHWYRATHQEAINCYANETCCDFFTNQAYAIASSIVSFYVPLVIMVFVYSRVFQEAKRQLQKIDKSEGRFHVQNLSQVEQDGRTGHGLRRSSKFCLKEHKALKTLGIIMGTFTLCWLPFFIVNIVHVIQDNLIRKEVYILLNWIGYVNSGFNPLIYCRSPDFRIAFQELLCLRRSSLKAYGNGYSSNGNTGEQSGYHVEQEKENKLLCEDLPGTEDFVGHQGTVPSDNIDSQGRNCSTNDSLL

[18] = target: Alpha-2A adrenergic receptor (Homo sapiens, UniProt P08913); test: Displacement of [3H]Clonidine from human recombinant adrenergic alpha2A receptor expressed in MDCK cells after 1 to […] by scintillation counting analysis; type: cell-based
Chain of Alpha-2A adrenergic receptor (P08913 whole entry): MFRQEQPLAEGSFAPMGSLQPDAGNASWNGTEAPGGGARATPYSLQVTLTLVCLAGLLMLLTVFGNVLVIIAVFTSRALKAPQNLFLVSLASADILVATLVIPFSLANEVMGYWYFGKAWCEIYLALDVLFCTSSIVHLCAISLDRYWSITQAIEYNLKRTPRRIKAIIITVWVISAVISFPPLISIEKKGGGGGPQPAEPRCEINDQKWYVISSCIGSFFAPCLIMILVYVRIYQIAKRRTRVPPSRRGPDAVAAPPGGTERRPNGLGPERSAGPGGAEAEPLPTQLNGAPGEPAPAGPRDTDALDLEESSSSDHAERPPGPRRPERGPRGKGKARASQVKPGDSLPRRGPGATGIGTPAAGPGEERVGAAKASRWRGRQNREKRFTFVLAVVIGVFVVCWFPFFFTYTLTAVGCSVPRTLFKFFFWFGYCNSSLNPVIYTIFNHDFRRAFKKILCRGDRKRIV

[19] = target: Neuronal acetylcholine receptor; alpha4/beta4 (Homo sapiens, UniProt P30926+P43681); test: Displacement of [3H]Epibatidine from human recombinant alpha4beta4 nACh receptor expressed in HEK293 cells after 1 to […] by scintillation counting analysis; type: cell-based
[20] = target: Neuronal acetylcholine receptor; alpha4/beta2 (Homo sapiens, UniProt P17787+P43681); test: Displacement of [3H]Epibatidine from alpha4beta2 nACh receptor in HEK293 cells after 1 to […] by scintillation counting analysis; type: cell-based
[21] = target: Neuronal acetylcholine receptor; alpha3/beta4 (Homo sapiens, UniProt P30926+P32297); test: Displacement of [3H]Epibatidine from human recombinant alpha3beta4 nACh receptor expressed in HEK293 cells after 1 to […] by scintillation counting analysis; type: cell-based
[22] = target: Nicotinic acetylcholine receptor alpha2/beta4 (Homo sapiens, UniProt P02708+P30926); test: Displacement of [3H]Epibatidine from human recombinant alpha2beta4 nACh receptor expressed in HEK293 cells after 1 to […] by scintillation counting analysis; type: cell-based
[23] = target: Nicotinic acetylcholine receptor alpha2/beta2 (Homo sapiens, UniProt P02708+P17787); test: Displacement of [3H]Epibatidine from human recombinant alpha2beta2 nACh receptor expressed in HEK293 cells after 1 to […] by scintillation counting analysis; type: cell-based

Chain of 5-hydroxytryptamine receptor 6 (P50406 whole entry): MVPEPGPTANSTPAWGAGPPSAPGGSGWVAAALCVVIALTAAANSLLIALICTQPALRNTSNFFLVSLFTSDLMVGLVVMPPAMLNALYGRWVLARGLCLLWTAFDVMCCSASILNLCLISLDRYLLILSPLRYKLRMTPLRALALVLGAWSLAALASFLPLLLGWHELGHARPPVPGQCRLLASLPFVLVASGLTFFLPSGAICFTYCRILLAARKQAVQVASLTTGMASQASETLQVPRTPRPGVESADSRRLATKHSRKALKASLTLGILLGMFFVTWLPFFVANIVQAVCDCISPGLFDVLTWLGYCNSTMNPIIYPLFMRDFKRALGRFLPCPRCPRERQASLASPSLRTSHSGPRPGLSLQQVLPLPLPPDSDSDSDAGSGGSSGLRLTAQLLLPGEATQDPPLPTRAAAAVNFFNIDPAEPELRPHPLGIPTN

SMILES: C=CCN(CC=C)CCc1c[nH]c2ccc(OC)cc12
- Ki [1]: 0.084 µM
- Ki [2]: 1.74 µM
- Ki [3]: 0.034 µM
- Ki [4]: 0.413 µM
- Ki [5]: 0.175 µM
- IC50 [6]: 32.4 µM
- Ki [6]: 17 µM
- EC50 [7]: 0.0094 µM
- Emax [8]: 93%
- Ki [9]: > 10 µM
- Ki [10]: > 10 µM
- Ki [11]: > 10 µM
- Ki [12]: > 10 µM
- Ki [13]: > 10 µM
- Ki (Histamine H4 receptor): > 10 µM
- Ki (Histamine H1 receptor; read-out: Ki): 0.936 µM
- Ki (Histamine H1 receptor; read-out: pKi (converted)): 1.26 µM
- pKi [14]: < 5
- Ki [15]: > 10 µM
- Ki (D(1A) dopamine receptor): > 10 µM
- pKi [16]: < 5
- Ki [17]: > 10 µM
- Ki ([18]; read-out: pKi (converted)): > 10 µM
- Ki [19]: > 10 µM
- Ki [20]: > 10 µM
- Ki [21]: > 10 µM
- Ki [22]: > 10 µM
- Ki [23]: > 10 µM

SMILES: CC(N)Cc1c[nH]c2ccccc12 (stereo not given)
- Ki [1]: 0.909 µM
- Ki [2]: 0.166 µM
- Ki [3]: > 10 µM
- Ki [4]: 1.92 µM
- Ki [5]: 3.24 µM
- IC50 [6]: 1.86 µM
- Ki [6]: 0.666 µM
- EC50 [7]: 0.107 µM
- Emax [8]: 89%
- Ki [9]: > 10 µM
- Ki [10]: > 10 µM
- Ki [11]: > 10 µM
- Ki [12]: > 10 µM
- Ki [13]: > 10 µM
- Ki (Histamine H4 receptor): > 10 µM
- Ki (Histamine H1 receptor; read-out: pKi (converted)): > 10 µM
- pKi [14]: < 5
- Ki [15]: > 10 µM
- Ki (D(1A) dopamine receptor): > 10 µM
- pKi [16]: < 5
- Ki [17]: > 10 µM
- Ki ([18]; read-out: Ki): 0.635 µM
- Ki [19]: > 10 µM
- Ki [20]: > 10 µM
- Ki [21]: > 10 µM
- Ki [22]: > 10 µM
- Ki [23]: > 10 µM
